Measured values from ChEMBL document CHEMBL4706610, “Hydroxypyridinone-Based Iron Chelators with Broad-Ranging Biological Activities” (J Med Chem, 2020).
pIC50: −log10 of the molar value. In brackets after ≈: the same amount, converted by molar mass. Each block holds one molecule with its values, some of them ahead of it.

Legend:
[1] = Binding affinity to iron assessed as pFe3+
Pseudomonas aeruginosa = assay: Antibacterial activity against Pseudomonas aeruginosa incubated for 2 hrs followed by sterilized TSB addition and measured after 24 hrs by visual inspection; assay type: functional; conditions: time 26 hrs
[2] = Octanol/water partition coefficient, log P of the compound shaken for 45 mins and measured after 15 mins; assay type: physicochemical; conditions: time 60 min
[3] = Binding affinity to iron assessed as pFe3+ by spectrophotometric method
[4] = Antioxidant activity assessed as ABTS radical scavenging activity by trolox-equivalent antioxidant capacity assay; assay type: functional
[5] = molecular target: T1, Amyloid-beta precursor protein (Homo sapiens, UniProt P05067); assay: Inhibition of self-induced amyloid beta (1 to 42) (unknown origin) aggregation by ThT fluorescence assay
T1 sequence (P05067 whole entry): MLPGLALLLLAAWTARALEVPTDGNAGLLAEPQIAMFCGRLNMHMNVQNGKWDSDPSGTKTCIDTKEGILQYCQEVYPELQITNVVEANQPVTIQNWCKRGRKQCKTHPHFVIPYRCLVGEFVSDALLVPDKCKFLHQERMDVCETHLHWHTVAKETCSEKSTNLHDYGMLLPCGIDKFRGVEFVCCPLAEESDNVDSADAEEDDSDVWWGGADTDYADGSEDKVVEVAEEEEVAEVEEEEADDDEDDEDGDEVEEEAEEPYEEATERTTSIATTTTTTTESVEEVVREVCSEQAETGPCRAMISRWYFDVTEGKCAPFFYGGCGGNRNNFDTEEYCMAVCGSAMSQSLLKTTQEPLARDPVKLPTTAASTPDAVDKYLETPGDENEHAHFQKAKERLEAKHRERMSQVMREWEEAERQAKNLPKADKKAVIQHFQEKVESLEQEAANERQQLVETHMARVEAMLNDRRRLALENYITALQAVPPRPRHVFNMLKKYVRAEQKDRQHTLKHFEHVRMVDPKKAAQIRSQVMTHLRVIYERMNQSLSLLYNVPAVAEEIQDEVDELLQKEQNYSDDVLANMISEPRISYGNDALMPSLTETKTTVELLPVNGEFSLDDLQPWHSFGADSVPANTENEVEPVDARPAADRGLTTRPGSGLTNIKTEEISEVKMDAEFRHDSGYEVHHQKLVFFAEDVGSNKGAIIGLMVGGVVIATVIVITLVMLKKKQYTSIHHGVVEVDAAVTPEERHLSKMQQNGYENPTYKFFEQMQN

[6] = molecular target: T1, Amyloid-beta precursor protein; assay: Inhibition of self-induced amyloid beta (1 to 42) (unknown origin) aggregation by ThT fluorescence assay relative to control; conditions: concentration not given here
Acetylcholinesterase [7] = molecular target: T2, Acetylcholinesterase (Electrophorus electricus, UniProt O42275); assay: Inhibition of electric eel AChE using acetylthiocholine iodide as substrate preincubated for 15 mins followed by substrate addition and measured for 5 mins by Ellman's method
T2 sequence (O42275 whole entry): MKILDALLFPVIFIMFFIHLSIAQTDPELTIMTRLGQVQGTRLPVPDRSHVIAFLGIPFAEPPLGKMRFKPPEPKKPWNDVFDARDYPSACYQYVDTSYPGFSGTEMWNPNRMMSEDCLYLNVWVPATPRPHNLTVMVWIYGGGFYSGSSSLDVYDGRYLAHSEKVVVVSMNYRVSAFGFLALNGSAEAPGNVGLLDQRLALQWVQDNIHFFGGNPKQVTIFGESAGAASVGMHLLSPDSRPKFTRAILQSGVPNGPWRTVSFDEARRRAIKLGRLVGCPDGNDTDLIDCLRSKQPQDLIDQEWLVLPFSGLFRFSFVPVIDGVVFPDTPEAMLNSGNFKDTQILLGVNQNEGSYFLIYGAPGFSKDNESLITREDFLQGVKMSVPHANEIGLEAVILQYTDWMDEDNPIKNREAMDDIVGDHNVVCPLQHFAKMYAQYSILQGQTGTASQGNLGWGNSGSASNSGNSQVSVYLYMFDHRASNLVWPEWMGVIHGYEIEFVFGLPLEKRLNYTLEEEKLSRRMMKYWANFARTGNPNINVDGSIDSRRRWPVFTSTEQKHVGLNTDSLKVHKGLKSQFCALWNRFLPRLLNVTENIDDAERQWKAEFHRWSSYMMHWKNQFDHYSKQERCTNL

[8] = Binding affinity to iron assessed as pFe3+ at pH 7.4
Rattus norvegicus = assay: Iron scavenging activity in 59Fe-ferritin-loaded Wistar rat assessed as iron mobilization efficacy at 450 umol/kg, po dosed 1 hr after 59Fe-ferritin injection and measured 24 hrs after 59Fe-ferritin injection by gamma counting method relative to control; assay type: functional; conditions: dose 450 µmol/kg
[9] = system: Human immunodeficiency virus 1; assay: Antiviral activity against HIV1 BaL infected in human peripheral blood lymphocytes assessed as reduction in p24 production incubated for 5 days by ELISA; assay type: functional, organism-based; conditions: Human immunodeficiency virus 1, BaL, PBL, 120 h
[10] = Binding affinity to iron assessed as pFe3+ at pH 7.4 by spectrophotometric method
[11] = Octanol-buffer partition coefficient, logP of the compound at pH 7.4 by shake flask method; assay type: physicochemical
Providencia stuartii = assay: Antibacterial activity against Providencia stuartii incubated for 24 hrs by visual inspection; assay type: functional
Staphylococcus aureus [12] = assay: Antibacterial activity against Staphylococcus aureus incubated for 2 hrs followed by sterilized water addition and measured after 24 hrs by visual inspection; assay type: functional; conditions: time 26 hrs
Staphylococcus aureus [13] = assay: Antibacterial activity against Staphylococcus aureus incubated for 2 hrs followed by sterilized TSB addition and measured after 24 hrs by visual inspection; assay type: functional; conditions: time 26 hrs
Bacillus subtilis = assay: Antibacterial activity against Bacillus subtilis incubated for 2 hrs followed by sterilized TSB addition and measured after 24 hrs by visual inspection; assay type: functional; conditions: time 26 hrs
Escherichia coli = assay: Antibacterial activity against Escherichia coli incubated for 2 hrs followed by sterilized TSB addition and measured after 24 hrs by visual inspection; assay type: functional; conditions: time 26 hrs
[14] = Antioxidant activity assessed as DPPH radical scavenging activity incubated for 30 mins by absorbance method; assay type: functional
Acetylcholinesterase [15] = molecular target: T2, Acetylcholinesterase; assay: Inhibition of electric eel AChE using acetylthiocholine iodide as substrate preincubated for 15 mins followed by substrate addition and measured for 5 mins by Ellman's reagent based UV-Vis spectrophotometric method
[16] = molecular target: T1, Amyloid-beta precursor protein; assay: Inhibition of self-induced amyloid beta (1 to 42) (unknown origin) aggregation measured after 24 hrs by ThT fluorescence assay relative to control; conditions: concentration not given here
Plasmodium falciparum [17] = assay: Antiplasmodial activity against chloroquine-sensitive Plasmodium falciparum 3D7 incubated for 48 hrs by parasite lactate dehydrogenase assay; assay type: functional, organism-based; conditions: 3D7, 48 h
Plasmodium falciparum [18] = assay: Antiplasmodial activity against chloroquine-sensitive Plasmodium falciparum D10 incubated for 48 hrs by parasite lactate dehydrogenase assay; assay type: functional, organism-based; conditions: D10, 48 h
Plasmodium falciparum [19] = assay: Antiplasmodial activity against chloroquine-resistant Plasmodium falciparum K1 incubated for 48 hrs by parasite lactate dehydrogenase assay; assay type: functional, organism-based; conditions: K1, 48 h
Plasmodium falciparum [20] = assay: Antiplasmodial activity against chloroquine-resistant Plasmodium falciparum Dd2 incubated for 48 hrs by parasite lactate dehydrogenase assay; assay type: functional, organism-based; conditions: Dd2, 48 h
[21] = system: Staphylococcus epidermidis; assay: Antibacterial activity against Staphylococcus epidermis ATCC 12228 measured after 18 to 24 hrs by CLSI-based microdilution technique; assay type: functional; conditions: time 18-24 hrs
Plasmodium falciparum [22] = assay: Antiplasmodial activity against Plasmodium falciparum NF54 treated for 96 hrs with replacement of growth medium once a day for 4 days; assay type: functional, organism-based; conditions: NF54, 96 h
Acetylcholinesterase [23] = molecular target: T2, Acetylcholinesterase; assay: Inhibition of electric eel AChE using acetylthiocholine iodide as substrate preincubated for 5 mins followed by substrate addition and measured after 2 mins by Ellman's method
[24] = Binding affinity to Fe3+ assessed as binding constant

SMILES: CCCC(=O)NC(CCCNC(=O)c1c(O)c(=O)ccn1CC)(CCCNC(=O)c1c(O)c(=O)ccn1CC)CCCNC(=O)c1c(O)c(=O)ccn1CC
- MIC (Pseudomonas aeruginosa): 32 µg/mL (≈ 41.7 µM)

SMILES: Cc1c(O)c(=O)ccn1CC(=O)NCCCCNc1c2c(nc3cc(Cl)ccc13)CCCC2
- pIC50 (Acetylcholinesterase [7]): 6.19

SMILES: Cc1c(O)c(=O)ccn1CC(=O)NCCNc1c2c(nc3cc(Cl)ccc13)CCCC2
- pIC50 (Acetylcholinesterase [7]): 6.19

SMILES: COCCOCCOCC(=O)NC(CCC(=O)NCc1c(O)c(=O)cc(C)n1C)(CCC(=O)NCc1c(O)c(=O)cc(C)n1C)CCC(=O)NCc1c(O)c(=O)cc(C)n1C
- MIC (Providencia stuartii): 320 µg/mL (≈ 373 µM)
- MIC (Staphylococcus aureus [12]): 240 µg/mL (≈ 280 µM)

SMILES: CCCCCCn1ccc(=O)c(O)c1C(=O)NCCCC(CCCNC(=O)c1c(O)c(=O)ccn1CCCCCC)(CCCNC(=O)c1c(O)c(=O)ccn1CCCCCC)NC(=O)CCC
- MIC (Pseudomonas aeruginosa): 32 µg/mL (≈ 34.2 µM)

SMILES: CCCC(=O)NC(CCCNC(=O)c1c(O)c(=O)ccn1C)(CCCNC(=O)c1c(O)c(=O)ccn1C)CCCNC(=O)c1c(O)c(=O)ccn1C
- MIC (Staphylococcus aureus [13]): 8 µg/mL (≈ 11 µM)
- MIC (Bacillus subtilis): 8 µg/mL (≈ 11 µM)
- MIC (Pseudomonas aeruginosa): 16 µg/mL (≈ 22 µM)
- MIC (Escherichia coli): 8 µg/mL (≈ 11 µM)

SMILES: Cc1c(OCc2ccccc2)c(=O)ccn1-c1ccc(CC(=O)NCc2ccc(-c3nc4ccccc4s3)cc2)cc1
- pIC50 [14]: < 3.00
- pIC50 (Acetylcholinesterase [15]): 4.86
- inhibition [16]: 68.9%

SMILES: CCCCn1ccc(=O)c(O)c1C(=O)NCCCC(CCCNC(=O)c1c(O)c(=O)ccn1CCCC)(CCCNC(=O)c1c(O)c(=O)ccn1CCCC)NC(=O)[C@@H](N)CC(C)C
- MIC (Pseudomonas aeruginosa): 32 µg/mL (≈ 35.7 µM)

SMILES: O=c1cc(CNCCCCCCNc2ccnc3cc(Cl)ccc23)n(C2CC2)cc1OCc1ccccc1
- pIC50 (Plasmodium falciparum [17]): 7.19
- pIC50 (Plasmodium falciparum [18]): 7.33
- pIC50 (Plasmodium falciparum [19]): 6.30
- pIC50 (Plasmodium falciparum [20]): 6.33

SMILES: CN(C)c1ccc2c(-c3cc(NC(=S)NCCC(=O)NC(CCCNC(=O)c4[nH]ccc(=O)c4O)(CCCNC(=O)c4[nH]ccc(=O)c4O)CCCNC(=O)c4[nH]ccc(=O)c4O)ccc3C(=O)[O-])c3ccc(=[N+](C)C)cc-3oc2c1
- MIC [21]: 16 µM (≈ 18.1 µg/mL)

SMILES: C=CCN1C(c2ccccn2)CC(=O)C(C(=O)OC)C1c1ccccn1 (stereo not drawn)
- pIC50 (Plasmodium falciparum [22]): 5.85

SMILES: Cc1c(O)c(=O)ccn1CCCC(=O)N1CCCC1c1nc2ccccc2s1 (stereo not drawn)
- Activity [10]: 19.2
- pIC50 [14]: 3.83
- pIC50 (Acetylcholinesterase [15]): 4.83
- inhibition [16]: 59.3%

SMILES: CCCC(=O)NC(CCCNC(=O)c1c(O)c(=O)ccn1CCOC)(CCCNC(=O)c1c(O)c(=O)ccn1CCOC)CCCNC(=O)c1c(O)c(=O)ccn1CCOC
- MIC (Pseudomonas aeruginosa): 32 µg/mL (≈ 37.3 µM)

SMILES: Cc1c(OC(N)=O)c(=O)ccn1-c1ccccc1
- pIC50 (Acetylcholinesterase [23]): 4.31

SMILES: CC(=O)N(C)O
- Activity [1]: 13

Continued, in another order:

- Activity [1]: 22
SMILES: O=c1cc(CO)[nH]cc1O

- logP at 1 h [2]: 0.53
- Activity [3]: 20.3
SMILES: CC(=O)NCCCCCCn1ccc(=O)c(O)c1C

- pIC50 [5]: 5.15
- inhibition [6]: 65%
SMILES: O=c1cc(/C=C/c2nc3ccccc3o2)occ1O
- Activity [4]: 4.29

- Activity [8]: 22.8
- pIC50 [9]: 4.70
SMILES: CNC(=O)c1[nH]c(C)cc(=O)c1O
- Efficacy (Rattus norvegicus): 50.1%

- pIC50 [5]: 5.30
- inhibition [6]: 78.3%
SMILES: O=c1cc(/C=C/c2nc3ccc(O)cc3s2)occ1O
- Activity [4]: 6.03

- Activity [10]: 19.4
SMILES: Cc1c(O)c(=O)ccn1CCCC(=O)NCc1ccc(Cc2nc3ccccc3s2)cc1

- logD [11]: -2.01
SMILES: CC(=O)NCCOCCOCCn1ccc(=O)c(O)c1C

- Activity [1]: 30.5
- log Ks [24]: 30.7
SMILES: O=C(NCCN(CCNC(=O)c1[nH]ccc(=O)c1O)CCNC(=O)c1[nH]ccc(=O)c1O)c1[nH]ccc(=O)c1O
